The numbers were not newly measured in patent US20220184159A1, “METHOD OF BOOSTING INNATE IMMUNITY” (UNIVERSITY OF THE SUNSHINE COAST, priority 2018, published 2022), which cites them from elsewhere.

The conditions of series [1]: administered in the feed, fish.
For another series, the system named is immune system of fish. The conditions noted are these: carp, rainbow trout, turbot and Atlantic cod.

Take `CN(C)[C@@H]1C(O)=C(C(N)=O)C(=O)[C@@]2(O)C(O)=C3C(=O)c4c(O)cccc4[C@@](C)(O)[C@H]3[C@H](O)[C@@H]12` [Oxytetracycline]: in series [1], the “ingested oxytetracycline excreted intact in the faeces” value is reported as 70-80%. Besides, the “effect on the immune system of fish” value with immune system of fish is “immunosuppressive effects”.
